From patent publication US11427575B2, “Antitumor compound for activating JWA gene and degrading HER2, preparation method thereof, and application thereof” (SIMCERE PHARMACEUTICAL CO., LTD., priority 2019, dated 2022) come the findings set out here.

The structures appear in SMILES notation.

In this assay the test system is promoter of JWA gene. The assay is described as follows: Luciferase reporter gene under control of JWA gene promoter in HBE cells (high-throughput screening). Conditions: 48 h. Format: cell-based, human. The source says: High-throughput screening (HTS) was used to identify the human bronchial epithelial (HBE) cells stably transfected with a DNA construct with a luciferase gene under control of a 2,000 bp long promoter of JWA gene.
FIG. 1 is a sequence containing the 2000 bp promoter sequence of JWA gene that was used for a luciferase reporter gene plasmid construction.

`COc1cccc2sc(Nc3nc4c(F)ccc(F)c4s3)nc12` [JAC1011, 4,7-difluoro-n-(4-methoxybenzo-thiazole-2-group) benzoylthiazole-2-amine]: the “fluorescence intensity of reporter gene” value (0.05 μg/mL) turned out to be 13255.33; the “fluorescence intensity of reporter gene” value (0.10 μg/mL) was 13553.33; the “fluorescence intensity of reporter gene” value (0.21 μg/mL) is 15397.33; the “fluorescence intensity of reporter gene” value (0.41 μg/mL) was determined as 19835.00; the “fluorescence intensity of reporter gene” value (0.83 μg/mL) worked out at 25886.67; the “fluorescence intensity of reporter gene” value (1.65 μg/mL) is 31413.33. Moreover, where the note is “3.30 μg/mL”, the “fluorescence intensity of reporter gene” value was determined as 39676.33.

On to `COc1cccc2sc(Nc3nc4c(F)cc(F)cc4s3)nc12` [JAC1012, 4,6-difluoro-n-(4-methoxylbenzene (d)thiazole-2-group) benzene (d) thiazole-2-amine], for which the “fluorescence intensity of reporter gene” value turned out to be 13448.67 (0.05 μg/mL); 13518.67 (0.10 μg/mL); 16205.00 (0.21 μg/mL); 19768.67 (0.41 μg/mL); 25237.33 (0.83 μg/mL); 33228.00 (1.65 μg/mL). The “fluorescence intensity of reporter gene” value (3.30 μg/mL) was 41139.33.

Regarding `COc1cccc2sc(Nc3nc4c(C(F)(F)F)cccc4s3)nc12` [JAC1013, 4-methoxy-N-(4-(trifluoromethyl)benzo (d)thiazole-2-group) benzo (d) thiazole-2-amine], the “fluorescence intensity of reporter gene” value runs as follows: (0.05 μg/mL) 13315.33; (0.10 μg/mL) 12346.00; (0.21 μg/mL) 14926.00; (0.41 μg/mL) 16036.67; (0.83 μg/mL) 20014.00; (1.65 μg/mL) 26261.67. Under “3.30 μg/mL”, the “fluorescence intensity of reporter gene” value was 35332.33.

Turning to `COc1ccc(OC)c2sc(Nc3nc4c(F)cccc4s3)nc12` [JAC1014, N-(4-fluorobenzoyl (d)thiazole-2-group)-4,7-dimethoxy benzozoyl (d) thiazole-2-amine], the “fluorescence intensity of reporter gene” value reads like this: (0.05 μg/mL) 13835.33; (0.10 μg/mL) 14254.00; (0.21 μg/mL) 15262.67; (0.41 μg/mL) 18680.00; (0.83 μg/mL) 22088.00; (1.65 μg/mL) 28702.00. Further, where the note is “3.30 μg/mL”, the “fluorescence intensity of reporter gene” value is on record as 37664.67.

`COc1cc(OC)c2nc(Nc3nc4c(F)cccc4s3)sc2c1` [JAC1015, N-(4-fluorobenzoyl (d)thiazole-2-group)-4,6-dimethoxy benzozoyl (d) thiazole-2-amine]: the “fluorescence intensity of reporter gene” value is 14335.33 (0.05 μg/mL); 15573.33 (0.10 μg/mL); 18260.67 (0.21 μg/mL); 22168.67 (0.41 μg/mL); 28162.67 (0.83 μg/mL); 30168.67 (1.65 μg/mL). Further, the “fluorescence intensity of reporter gene” value (3.30 μg/mL) is given as 37663.33.

`COc1ccc(OC)c2sc(Nc3nc4c(C(F)(F)F)cccc4s3)nc12` [JAC1016, 4,7-dimethoxyn-(4-(trifluoromethyl)benzene (d)thiazole-2-group) benzene (d) thiazole-2-amine]: the “fluorescence intensity of reporter gene” value by setting is: (0.05 μg/mL) 14360.00; (0.10 μg/mL) 16238.00; (0.21 μg/mL) 19226.00; (0.41 μg/mL) 24518.00; (0.83 μg/mL) 28746.00; (1.65 μg/mL) 32253.33. For the same compound, the “fluorescence intensity of reporter gene” value (3.30 μg/mL) is 36361.67.

As for `COc1cc(OC)c2nc(Nc3nc4c(C(F)(F)F)cccc4s3)sc2c1` [JAC1017, 4,6-dimethoxyn-(4-(trifluoromethyl)benzo (d)thiazole-2-group) benzo (d) thiazole-2-amine], the “fluorescence intensity of reporter gene” value reads like this: (0.05 μg/mL) 12910.00; (0.10 μg/mL) 13086.67; (0.21 μg/mL) 14460.00; (0.41 μg/mL) 17188.00; (0.83 μg/mL) 22680.00; (1.65 μg/mL) 28406.00. In addition, the “fluorescence intensity of reporter gene” value (3.30 μg/mL) is reported as 37426.00.
